Read-outs that look alike come from different tables or passages of the source.
Experiments:
[1] = system: GPR119; design: method as in PMID 30100020, PMID 30685641; conditions: earlier work of the authors ref 31, 32; read-out: EC50 (GPR119 agonistic potency); cited from earlier work
[2] = system: mice; design: method as in PMID 30100020, PMID 30685641; conditions: compared with positive control ref 31, 32; cited from earlier work
[3] = target: T1, human GPR119 (Homo sapiens, UniProt Q8TDV5); assay: hGPR119 agonistic activity, LANCE Ultra cAMP accumulation assay in CHO K1 cells stably expressing human GPR119; format: cell-based; conditions: for Emax: CHO-K1, 1 h, read-out: GPR119 activation %max (inherent activity)
T1 construct: expressed in transfected cells; host or cells: CHO K1
T1 sequence (Q8TDV5 1-335): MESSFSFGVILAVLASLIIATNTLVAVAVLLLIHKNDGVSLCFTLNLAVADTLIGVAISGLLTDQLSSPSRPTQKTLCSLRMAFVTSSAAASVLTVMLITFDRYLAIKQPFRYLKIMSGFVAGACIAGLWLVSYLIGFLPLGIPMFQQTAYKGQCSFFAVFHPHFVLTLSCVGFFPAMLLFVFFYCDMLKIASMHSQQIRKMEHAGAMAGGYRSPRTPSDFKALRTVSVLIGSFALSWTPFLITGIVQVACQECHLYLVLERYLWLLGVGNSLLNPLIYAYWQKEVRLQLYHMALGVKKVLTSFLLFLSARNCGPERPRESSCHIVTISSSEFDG
Protocol: CHO K1 cells stably transfected with human GPR119 were grown at 37 °C, […] and 5% CO2 in 75 cm flasks containing DMEM/F12 (1:1) media with added 10% FBS (Gibco®), Geneticin (Gibco®) and grown until 90% confluent. Cells were then washed (PBS), lifted with cell dissociation solution (Invtrogen®), counted and used for cAMP accumulation assays and/or passaging (1:10). Following the manufacturer’s instructions for the LANCE® Ultra cAMP assay (Perkin Elmer), cell transfected with hGPR119 were centrifuged (1000 rpm, 5 min), re-suspended in cAMP assay buffer (HBSS, 0.1% BSA, 0.5 mM IBMX and 5 mM HEPES) and seeded at 5000 cells/well in optiplate-384 (Perkin Elmer). […] Cell lysis buffers (4X Eu-cAMP tracer solution and 4X ULight™-anti-cAMP solution) were added to each well, and the plates were incubated at r. t. for 1 h before being read on Envision (Perkin Elmer). The assay was performed for three replicates for each concentration.

[4] = system: C57BL/6N mice; assay: oral glucose tolerance test (oGTT), single dose, in C57BL/6N mice; format: in vivo; conditions: for blood glucose AUC0–120 min: mean ± SE, n = 8, vehicle 24.69 ± 3.08; for reduction of blood glucose AUC0–120 min: oGTT 3 g/kg glucose 4 h after dose, vs vehicle, C57BL/6N mice; for blood glucose reduction effect: single dose 15 and 30 mg/kg, oGTT in C57BL/6N mice
Protocol: Figure 2. Single dose of compounds 10 and 15 on oGTT in C57BL/6N mice.
AUC0–2h(mmol/L) = (BG0+BG15)×0.25/2 + (BG15+BG30)×0.25/2 + (BG30+BG60)×0.5/2 + (BG60+BG90)×0.5/2 + (BG90+BG120)×0.5/2.

[5] = cAMP stimulation % compared to maximal effect of GSK1292263
[6] = human GPR119 in CHO K1 cells, cAMP, 1 h incubation, read-out: GPR119 activation EC50

| Compound | Emax [3, 5] [%] | EC50 [3, 6] [nM] | GPR119 activation %max (inherent activity) [3, 5] [%] | further results |
| --- | --- | --- | --- | --- |
| CC(C)(C)OC(=O)N1[C@@H]2CC[C@H]1C[C@@H](Nc1ncnc3c(Nc4ccc(S(C)(=O)=O)cc4F)ncnc13)C2 [Compound 1] | – | – | – | EC50 [1]: 2.2 nM; glucose-lowering effect in oGTT [2]: did not show the significant glucose-lowering effect |
| CC(C)(C)OC(=O)N1[C@@H]2CC[C@H]1C[C@@H](Nc1ncnc3c(Nc4ccc(C#N)cc4F)ncnc13)C2 [Compound 2] | – | – | – | EC50 [1]: 8.1 nM; glucose-lowering effect in oGTT [2]: did not show the significant glucose-lowering effect |
| CC(C)(C)OC(=O)N1C2CCC1CC(Nc1ncnc3c1OCCN3c1ccc(C#N)cc1F)C2 (stereo not drawn) [Compound 10, tert-Butyl (endo)-3-((8-(4-cyano-2-fluorophenyl)-7,8-dihydro-6H-pyrimido[5,4-b][1,4]oxazin-4-yl)amino)-8-azabicyclo[3.2.1]octane-8-carboxylate] | – | – | – | EC50 [3]: 13 nM; Emax [3]: 83.9%; blood glucose AUC0–120 min ([4]; 15 mg/kg single dose): 22.1 ± 4.28 mmol·h/L; reduction of blood glucose AUC0–120 min ([4]; 15 mg/kg single dose): 10.7%; blood glucose AUC0–120 min ([4]; 30 mg/kg single dose): 20.1 ± 2.27 mmol·h/L; reduction of blood glucose AUC0–120 min ([4]; 30 mg/kg single dose): 18.8%; blood glucose reduction effect [4]: dose-dependent manner |
| CC(C)(C)OC(=O)N1C2CCC1CC(CNc1ncnc3c1OCCN3c1ccc(C#N)cc1F)C2 (stereo not drawn) [Compound 11, tert-Butyl (exo)-3-(((8-(4-cyano-2-fluorophenyl)-7,8-dihydro-6H-pyrimido[5,4-b][1,4]oxazin-4-yl)amino)methyl)-8-azabicyclo[3.2.1]octane-8-carboxylate] | 45.9 | 1800 | – | – |
| CC(C)(C)OC(=O)N1CCC(Nc2ncnc3c2OCCN3c2ccc(C#N)cc2F)CC1 [Compound 12, tert-Butyl 4-((8-(4-cyano-2-fluorophenyl)-7,8-dihydro-6H-pyrimido[5,4-b][1,4]oxazin-4-yl)amino)piperidine-1-carboxylate] | 63.5 | 200 | – | – |
| CC(C)(C)OC(=O)N1C2CCCC1CC(Nc1ncnc3c1OCCN3c1ccc(C#N)cc1F)C2 (centres unmarked) [Compound 13, tert-Butyl 3-((8-(4-cyano-2-fluorophenyl)-7,8-dihydro-6H-pyrimido[5,4-b][1,4]oxazin-4-yl)amino)-9-azabicyclo[3.3.1]nonane-9-carboxylate] | 22.7 | > 10000 | – | – |
| CC(C)OC(=O)N1[C@@H]2CC[C@H]1C[C@@H](Nc1ncnc3c1OCCN3c1ccc(C#N)cc1F)C2 [Compound 15, Isopropyl (endo)-3-((8-(4-cyano-2-fluorophenyl)-7,8-dihydro-6H-pyrimido[5,4-b][1,4]oxazin-4-yl)amino)-8-azabicyclo[3.2.1]octane-8-carboxylate] | – | 12 | 146.3 | EC50 ratio compound 15 vs. compound 22 ([3]; carbamate substituted derivatives, 15 vs. 22): 10 times; blood glucose AUC0–120 min ([4]; 15 mg/kg single dose): 21.1 ± 3.92 mmol·h/L; reduction of blood glucose AUC0–120 min ([4]; 15 mg/kg single dose): 14.5%; blood glucose AUC0–120 min ([4]; 30 mg/kg single dose): 18.9 ± 2.58 mmol·h/L; reduction of blood glucose AUC0–120 min ([4]; 30 mg/kg single dose): 23.4%; blood glucose reduction effect [4]: dose-dependent manner |
| CCc1cnc(N2[C@@H]3CC[C@H]2C[C@@H](Nc2ncnc4c2OCCN4c2ccc(C#N)cc2F)C3)nc1 [Compound 16, 4-(4-(((endo)-8-(5-Ethylpyrimidin-2-yl)-8-azabicyclo[3.2.1]octan-3-yl)amino)-6,7-dihydro-8H-pyrimido[5,4-b][1,4]oxazin-8-yl)-3-fluorobenzonitrile] | – | 130 | 60.5 | – |
| N#Cc1ccc(N2CCOc3c(N[C@H]4C[C@H]5CC[C@@H](C4)N5c4ncc(Cl)cn4)ncnc32)c(F)c1 [Compound 17, 4-(4-(((endo)-8-(5-Chloropyrimidin-2-yl)-8-azabicyclo[3.2.1]octan-3-yl)amino)-6,7-dihydro-8H-pyrimido[5,4-b][1,4]oxazin-8-yl)-3-fluorobenzonitrile] | – | 250 | 71.2 | – |
| N#Cc1ccc(N2CCOc3c(NC4CC5CCC(C4)N5CC(=O)N4CCn5c(nnc5C(F)(F)F)C4)ncnc32)c(F)c1 (stereo not drawn) [Compound 18, 3-Fluoro-4-(4-(((endo)-8-(2-oxo-2-(3-(trifluoromethyl)-5,6-dihydro-[1,2,4]triazolo[4,3-a]pyrazin-7(8H)-yl)ethyl)-8-azabicyclo[3.2.1]octan-3-yl)amino)-6,7-dihydro-8H-pyrimido[5,4-b][1,4]oxazin-8-yl)benzonitrile] | – | 110 | 100 | – |
| CC(C)(C)OC(=O)N[C@@H]1CCCN(C(=O)CN2[C@@H]3CC[C@H]2C[C@@H](Nc2ncnc4c2OCCN4c2ccc(C#N)cc2F)C3)C1 [Compound 19, tert-Butyl ((R)-1-(2-((endo)-3-((8-(4-cyano-2-fluorophenyl)-7,8-dihydro-6H-pyrimido[5,4-b][1,4]oxazin-4-yl)amino)-8-azabicyclo[3.2.1]octan-8-yl)acetyl)piperidin-3-yl)carbamate] | – | 68 | 75.6 | – |
| CC(C)(C)OC(=O)N1CCN(C(=O)CN2[C@@H]3CC[C@H]2C[C@@H](Nc2ncnc4c2OCCN4c2ccc(C#N)cc2F)C3)CC1 [Compound 20, tert-Butyl 4-(2-((endo)-3-((8-(4-cyano-2-fluorophenyl)-7,8-dihydro-6H-pyrimido[5,4-b][1,4]oxazin-4-yl)amino)-8-azabicyclo[3.2.1]octan-8-yl)acetyl)piperazine-1-carboxylate] | – | 82 | 79.6 | – |
| CC(C)OC(=O)N1CCC(Nc2ncnc3c2OCCN3c2ccc(C#N)cc2F)CC1 [Compound 22, Isopropyl 4-((8-(4-cyano-2-fluorophenyl)-7,8-dihydro-6H-pyrimido[5,4-b][1,4]oxazin-4-yl)amino)piperidine-1-carboxylate] | 66.1 | 120 | – | – |
| CCc1cnc(N2CCC(Nc3ncnc4c3OCCN4c3ccc(C#N)cc3F)CC2)nc1 [Compound 23, 4-(4-((1-(5-Ethylpyrimidin-2-yl)piperidin-4-yl)amino)-6,7-dihydro-8H-pyrimido[5,4-b][1,4]oxazin-8-yl)-3-fluorobenzonitrile] | 70.7 | 44 | – | – |
| N#Cc1ccc(N2CCOc3c(NC4CCN(c5ncc(Cl)cn5)CC4)ncnc32)c(F)c1 [Compound 24, 4-(4-((1-(5-Chloropyrimidin-2-yl)piperidin-4-yl)amino)-6,7-dihydro-8H-pyrimido[5,4-b][1,4]oxazin-8-yl)-3-fluorobenzonitrile] | 62.7 | 40 | – | – |
| CC(C)(C)OC(=O)N1CCN(C(=O)CN2CCC(Nc3ncnc4c3OCCN4c3ccc(C#N)cc3F)CC2)CC1 [Compound 25, tert-Butyl 4-(2-(4-((8-(4-cyano-2-fluorophenyl)-7,8-dihydro-6H-pyrimido[5,4-b][1,4]oxazin-4-yl)amino)piperidin-1-yl)acetyl)piperazine-1-carboxylate] | 100 | 90 | – | – |
| CC(C)c1noc(N2CCC(COc3ccc(-c4ccc(S(C)(=O)=O)cc4)nc3)CC2)n1 [GSK-1292263, reference compound] | – | – | – | EC50 [3]: 6.6 nM |

Reference: article PMC6830257, “Optimisation of novel 4, 8-disubstituted dihydropyrimido[5,4-b][1,4]oxazine derivatives as potent GPR 119 agonists” (Journal of Enzyme Inhibition and Medicinal Chemistry, 2019)
